This note sets out measurements from patent publication US9963455B2, “Pyrazolo[1,5-a]pyrimidines as antiviral compounds” (Curovir AB, priority 2014, dated 2018).

In data set [1] the test system is polio virus strain 1. Nature of the data set: microbe, parasite or virus in culture. The data set is classed as cell-based. The conditions noted are these: read-out: antiviral effect, Polio 1.
The test system of data set [2] is Enterovirus strain 30. Nature of the data set: CPE inhibition in mammalian cell culture, EV30. In kind it is cell-based. To be noted: Conc. 10 µM, read-out: antiviral effect, EV30.
For data set [3], the system named is Human parechovirus strain 1. Put plainly: CPE inhibition in mammalian cell culture, HPeV-1. In kind it is cell-based. To be noted: Parechovirus A; Conc. 10 µM; read-out: antiviral effect, HPeV-1.
For data set [4], the system named is coxsackie B virus strain 5. Nature of the data set: CPE inhibition in mammalian cell culture, Cox-B5. In kind it is cell-based. The conditions noted are these: read-out: antiviral effect, B5.
Data set [5] deals with coxsackie B virus strain 2. Put plainly: CPE inhibition in mammalian cell culture, Cox-B2. The data set is classed as cell-based. To be noted: read-out: antiviral effect, B2.
Data set [6] concerns Enterovirus strain 71. Put plainly: CPE inhibition in mammalian cell culture, EV71. In kind it is cell-based. Also noted: inhibition: dose or concentration left out as unconfirmed. To be noted: for inhibition: Conc., read-out: antiviral effect, EV71.
For data set [7], the system named is Porcine Tescho virus. Put plainly: microbe, parasite or virus in culture. The conditions noted are these: Conc.; read-out: antiviral effect, PTV. Also noted: dose or concentration left out as unconfirmed. In kind it is cell-based.
Data set [8] has as its system encephalomyocarditis virus. Nature of the data set: CPE inhibition in mammalian cell culture, EMCV. To be noted: Cardiovirus A; Conc.; read-out: antiviral effect, EMCV. Also noted: inhibition: dose or concentration left out as unconfirmed. The data set is classed as cell-based.
Data set [9] has as its system coxsackie B virus strain 3. Nature of the data set: CPE inhibition in mammalian cell culture, Cox-B3. The data set is classed as cell-based. To be noted: read-out: antiviral effect, B3.
The subject of data set [10] is coxsackie B virus strain 4. Nature of the data set: CPE inhibition in mammalian cell culture, Cox-B4. The data set is classed as cell-based. The conditions noted are these: read-out: antiviral effect, B4.
The test system of data set [11] is Ljungan virus strain 012. Nature of the data set: CPE inhibition in mammalian cell culture, LV012. The data set is classed as cell-based. To be noted: Parechovirus B; Conc. 10 µM; read-out: antiviral effect, LV012.
For data set [12], the system named is coxsackie B virus strain 1. Nature of the data set: CPE inhibition in mammalian cell culture, Cox-B1. In kind it is cell-based. The conditions noted are these: read-out: antiviral effect, B1.
For data set [13], the system named is Ljungan virus strain 145. Nature of the data set: CPE inhibition in mammalian cell culture, LV145. Also noted: inhibition: dose or concentration left out as unconfirmed. The conditions noted are these: Parechovirus B; for inhibition: Conc., read-out: antiviral effect, LV145. In kind it is cell-based.
Data set [14] deals with Coxsackie B3 virus, Nancy strain. Put plainly: Anti-viral efficacy against Coxsackie virus in a neutropenic mouse model. In kind it is in vivo, Male BALB/c mice. The conditions noted are these: neutropenic BALB/c mice, Coxsackie B3 i.p., 200 mg/kg once daily per orally from day 1 or day 3. The procedure: The FIGURE is a diagram showing the number of surviving animals as a function of the number of days after infections with Coxsackie B3 virus, in mice treated with the compound of Ex. 9, 200 mg/kg once daily per orally starting on day 1 (group 1) or on day 3 (group 2), and in mice treated with vehicle only (0.4% Tween 80, 2% glycerol and 15% β-hydroxypropyl cyclodextrin).
Evaluation of Anti-Viral Efficacy Against Coxsackie Virus in a Neutropenic Mouse Model Test System Male BALB/c mice, weighing 22-26 grams were used with 4 animals/group. Neutropenic induction: Cyclophosphamide Challenge organism: Coxsackie (human origin) virus CVB3 Route of infection: Intraperitoneal Route of administration: per oral End point: Cumulative survival
All experimental procedures involving animals were performed according to protocols approved by the Institutional Animal Ethics Committee of Anthem Biosciences. The mice, male BALB/c mice were housed 4 animals per cage and allowed access to feed and water ad libitum under controlled conditions. Mice were acclimatized for 7 days prior to the study. The animals were observed daily for general health during this period. […]
The animals were observed daily during the study period for signs of mortality, morbidity (paralysis) and signs of acute toxicity. Abnormal clinical signs were recorded if observed.

The conditions of data set [15]: Sprague Dawley rats, 250 and 750 mg/kg body weight/day for 7 days.
The conditions of data set [16]: female Sprague Dawley rats, single dose.
Data set [17] deals with Theiler. Nature of the data set: CPE inhibition in mammalian cell culture, Theiler. The data set is classed as cell-based. To be noted: Conc. 10 μM.

A value given as a limit tells only on which side of the number the result lay.

Turning to `CC(C)c1cc(NCc2ccccc2)n2ncc(-c3ccccc3)c2n1` [Ex. 4, N-benzyl-5-isopropyl-3-phenyl-pyrazolo[1,5-a]pyrimidin-7-amine], the inhibition at 10000 µM in [1] was 17%; in data set [4] it was 0%; in data set [5], 0%; in [9], 0%; in data set [10], 53%; in data set [12], 36%. For the same compound, the figures for the inhibition at 10 µM in data set [2], in data set [3] and in [11] were 0%, 7% and 28%, respectively. The inhibition stood at 69% in data set [6], 87% in [7], 81% in [8] and 61% in data set [13]. Moreover, the inhibition at 2.5 µM in data set [6] (EV71, Conc. 2.5 μM) was 46%.

In the case of `COc1ccc(-c2c(C)nn3c(NCc4ccc(C)cc4)cc(C)nc23)cc1OC` [Ex. 6, 3-(3,4-dimethoxyphenyl)-2,5-dimethyl-N-(p-tolylmethyl)pyrazolo[1,5-a]pyrimidin-7-amine], the inhibition at 10000 µM was determined as 19% in [1]; 54% in data set [4]; 82% in data set [5]; 69% in [10]; 35% in [12]. In addition, the inhibition at 10 µM is 44% in [2], 60% in data set [3] and 28% in data set [11]. In addition, the inhibition was determined as 37% in [6], 62% in data set [7], 0% in data set [8] and 63% in [13]. Also, in data set [13] (LV145, Conc. 5.0 μM), the inhibition at 5 µM came to 56%.

As to `COc1ccc(-c2c(C)nn3c(NCc4ccc(F)cc4)cc(C)nc23)cc1OC` [Ex. 9, 3-(3,4-dimethoxyphenyl)-N-[(4-fluorophenyl)methyl]-2,5-dimethyl-pyrazolo[1,5-a]pyrimidin-7-amine], the inhibition at 10000 µM amounted to 91% in [1]; 73% in data set [4]; 76% in [5]; 48% in [10]; 53% in data set [12]. Besides, the inhibition at 10 µM in data set [2] was 35%; in [3], 19%; in data set [11], 18%. Besides, in [14], the Cumulative survival entry is “has an antiviral effect in vivo and can extend the life of the animals”. Further, under “BALB/C mice, 200 and 400 mg/kg body weight/day for 7 days”, the “adverse clinical signs or mortality” value is listed as “did not reveal any adverse clinical signs or mortality”. Further, for the setting “mouse, in vivo, po”, the “No Observed Adverse Effect Level (NOAEL)” value came to 400 mg/kg body weight/day. Also, the “adverse clinical signs and mortality” value in data set [15] was “adverse clinical signs in both sexes at 750 mg/kg and mortality in one female at 750 mg/kg”. In addition, the inhibition in data set [6] came out at 16%; in data set [7], 23%; in data set [8], 14%; in data set [13] it was 59%. For the same compound, in data set [6] (EV71, Conc. 0.25 μM), the inhibition at 0.25 µM turned out to be 93%. The maximum tolerable dose in data set [16] is listed as more than 2000 mg/kg body weight.

As to `COc1ccc(-c2c(C)nn3c(NCC(C)c4ccccc4)cc(C)nc23)cc1OC` (stereo not shown) [Ex. 10, 3-(3,4-dimethoxyphenyl)-2,5-dimethyl-N-(2-phenylpropyl)pyrazolo[1,5-a]pyrimidin-7-amine], the inhibition at 10 µM in [2] stood at 88%; in data set [3], 3%; in data set [11], 0%. In addition, the inhibition at 10000 µM in data set [4] was determined as 92%; in data set [5] it was 97%; in data set [10] it was 94%; in data set [12], 79%. For the same compound, the inhibition in data set [6] was 58%; in [7], 43%; in data set [8], 25%; in data set [13], 41%. Further, the inhibition at 2.5 µM in data set [13] (LV145, Conc. 2.5 μM) amounted to 69%.

For `Cc1cc(NCc2ccc(F)cc2)n2nc(C)c(-c3ccc(C(F)(F)F)cc3)c2n1` [Ex. 104, N-[(4-fluorophenyl)methyl]-2,5-dimethyl-3-[4-(trifluoromethyl)phenyl]pyrazolo[1,5-a]pyrimidin-7-amine], the inhibition at 10 µM in data set [17] was found to be 59%.
